Assay [1] deals with Epidermal growth factor receptor (Homo sapiens), P00533 [T790M]. As to the kind of experiment: (§1) Selectivity interaction (Kinase panel (Z-LYTE Assay)) EUB0001632a EGFR. The conditions noted are these: at 10 µM.
Assay [2] concerns the target Epidermal growth factor receptor (Homo sapiens, UniProt P00533). The assay is described as §1. The conditions noted are these: at 10 µM.
In assay [3] the test system is Epidermal growth factor receptor (Homo sapiens), P00533 [L861Q]. The description is as §1. The conditions noted are these: at 10 µM.
In assay [4] the test system is Epidermal growth factor receptor (Homo sapiens), P00533 [L858R,T790M]. The assay is described as §1. The conditions noted are these: at 10 µM.
Epidermal growth factor receptor (Homo sapiens), P00533 [L858R,T790M], sequence (P00533 whole entry T790M/L858R, looked up): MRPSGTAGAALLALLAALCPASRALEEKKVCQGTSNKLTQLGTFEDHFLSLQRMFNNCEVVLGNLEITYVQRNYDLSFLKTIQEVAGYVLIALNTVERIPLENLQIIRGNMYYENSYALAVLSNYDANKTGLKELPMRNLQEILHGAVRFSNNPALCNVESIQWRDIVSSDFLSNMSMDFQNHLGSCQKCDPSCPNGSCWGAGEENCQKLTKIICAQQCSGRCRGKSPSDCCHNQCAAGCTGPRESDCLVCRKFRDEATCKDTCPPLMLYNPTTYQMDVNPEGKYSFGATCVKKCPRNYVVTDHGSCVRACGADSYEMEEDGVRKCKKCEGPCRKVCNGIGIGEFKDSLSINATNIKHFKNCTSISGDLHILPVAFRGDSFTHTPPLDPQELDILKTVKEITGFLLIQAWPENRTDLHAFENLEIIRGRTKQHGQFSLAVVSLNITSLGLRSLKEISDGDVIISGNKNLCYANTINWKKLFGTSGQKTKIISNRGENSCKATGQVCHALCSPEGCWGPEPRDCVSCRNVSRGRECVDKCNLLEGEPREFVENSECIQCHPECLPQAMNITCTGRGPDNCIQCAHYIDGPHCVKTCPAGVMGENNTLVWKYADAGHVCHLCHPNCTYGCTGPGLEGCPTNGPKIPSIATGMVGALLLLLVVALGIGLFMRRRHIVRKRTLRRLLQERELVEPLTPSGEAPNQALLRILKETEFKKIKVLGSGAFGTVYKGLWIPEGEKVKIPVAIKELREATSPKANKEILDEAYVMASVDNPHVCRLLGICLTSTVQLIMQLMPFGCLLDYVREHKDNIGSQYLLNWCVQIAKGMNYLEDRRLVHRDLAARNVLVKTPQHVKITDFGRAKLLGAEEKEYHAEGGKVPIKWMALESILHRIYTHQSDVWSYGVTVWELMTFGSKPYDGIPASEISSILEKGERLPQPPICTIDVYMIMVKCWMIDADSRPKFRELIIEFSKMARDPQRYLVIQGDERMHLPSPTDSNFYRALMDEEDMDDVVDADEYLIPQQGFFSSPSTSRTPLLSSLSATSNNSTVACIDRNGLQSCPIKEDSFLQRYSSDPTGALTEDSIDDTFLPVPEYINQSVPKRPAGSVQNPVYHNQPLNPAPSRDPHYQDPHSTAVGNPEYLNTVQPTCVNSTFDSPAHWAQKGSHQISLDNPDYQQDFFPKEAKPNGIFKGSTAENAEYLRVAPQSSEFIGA
Assay [5] concerns Epidermal growth factor receptor (Homo sapiens), P00533 [L858R]. Described as §1. As to conditions: at 10 µM.
Epidermal growth factor receptor (Homo sapiens), P00533 [L858R], sequence (P00533 whole entry L858R): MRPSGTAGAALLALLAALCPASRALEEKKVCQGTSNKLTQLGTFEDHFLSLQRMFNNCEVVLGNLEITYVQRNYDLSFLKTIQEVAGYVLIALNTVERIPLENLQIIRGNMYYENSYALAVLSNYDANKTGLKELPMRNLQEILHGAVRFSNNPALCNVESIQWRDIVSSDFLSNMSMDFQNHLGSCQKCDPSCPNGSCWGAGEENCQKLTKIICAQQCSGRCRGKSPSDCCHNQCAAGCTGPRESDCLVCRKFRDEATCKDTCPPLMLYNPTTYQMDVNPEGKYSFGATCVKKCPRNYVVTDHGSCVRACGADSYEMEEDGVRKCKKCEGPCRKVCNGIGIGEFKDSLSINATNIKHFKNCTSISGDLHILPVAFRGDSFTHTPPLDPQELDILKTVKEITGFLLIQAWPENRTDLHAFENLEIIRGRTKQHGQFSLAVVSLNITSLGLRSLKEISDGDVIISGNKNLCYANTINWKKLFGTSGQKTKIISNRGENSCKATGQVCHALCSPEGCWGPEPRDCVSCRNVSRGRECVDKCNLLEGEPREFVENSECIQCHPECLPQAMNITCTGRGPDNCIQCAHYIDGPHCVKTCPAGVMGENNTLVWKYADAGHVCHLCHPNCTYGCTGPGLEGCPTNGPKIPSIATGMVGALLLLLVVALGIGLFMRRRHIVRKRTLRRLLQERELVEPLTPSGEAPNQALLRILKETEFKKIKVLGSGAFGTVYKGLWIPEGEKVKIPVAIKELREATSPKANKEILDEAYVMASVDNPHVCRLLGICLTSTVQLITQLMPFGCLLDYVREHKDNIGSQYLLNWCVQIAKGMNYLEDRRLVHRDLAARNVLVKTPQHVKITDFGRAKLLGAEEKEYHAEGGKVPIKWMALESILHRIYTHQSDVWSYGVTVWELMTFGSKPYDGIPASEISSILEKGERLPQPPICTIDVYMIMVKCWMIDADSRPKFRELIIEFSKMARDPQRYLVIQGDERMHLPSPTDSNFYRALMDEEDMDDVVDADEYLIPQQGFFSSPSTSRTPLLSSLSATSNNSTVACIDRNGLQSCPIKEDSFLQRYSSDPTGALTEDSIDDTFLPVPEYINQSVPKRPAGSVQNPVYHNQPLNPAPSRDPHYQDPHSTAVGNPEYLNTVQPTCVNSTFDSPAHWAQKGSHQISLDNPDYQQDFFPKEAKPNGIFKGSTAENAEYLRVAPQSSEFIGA
Assay [6] has as its target RAC-alpha serine/threonine-protein kinase (Homo sapiens, UniProt P31749). As to the kind of experiment: Selectivity interaction (Ambit KINOMEscan and KiNATiv profiling in Jurkat cells) EUB0000090b AKT1. It is filed as cell-based. As to conditions: at 1 µM.
Assay [7] deals with Serine/threonine-protein kinase 24 (Homo sapiens) (UniProt Q9Y6E0). Nature of the assay: Selectivity interaction (KinomeScan (DiscoverX)) EUB0000607a STK24. As to conditions: at 10 µM.
The target of assay [8] is Serine/threonine-protein kinase N1 (Homo sapiens, UniProt Q16512). As to conditions: at 10 µM.
Serine/threonine-protein kinase N1, sequence (Q16512 2-942 limits assumed): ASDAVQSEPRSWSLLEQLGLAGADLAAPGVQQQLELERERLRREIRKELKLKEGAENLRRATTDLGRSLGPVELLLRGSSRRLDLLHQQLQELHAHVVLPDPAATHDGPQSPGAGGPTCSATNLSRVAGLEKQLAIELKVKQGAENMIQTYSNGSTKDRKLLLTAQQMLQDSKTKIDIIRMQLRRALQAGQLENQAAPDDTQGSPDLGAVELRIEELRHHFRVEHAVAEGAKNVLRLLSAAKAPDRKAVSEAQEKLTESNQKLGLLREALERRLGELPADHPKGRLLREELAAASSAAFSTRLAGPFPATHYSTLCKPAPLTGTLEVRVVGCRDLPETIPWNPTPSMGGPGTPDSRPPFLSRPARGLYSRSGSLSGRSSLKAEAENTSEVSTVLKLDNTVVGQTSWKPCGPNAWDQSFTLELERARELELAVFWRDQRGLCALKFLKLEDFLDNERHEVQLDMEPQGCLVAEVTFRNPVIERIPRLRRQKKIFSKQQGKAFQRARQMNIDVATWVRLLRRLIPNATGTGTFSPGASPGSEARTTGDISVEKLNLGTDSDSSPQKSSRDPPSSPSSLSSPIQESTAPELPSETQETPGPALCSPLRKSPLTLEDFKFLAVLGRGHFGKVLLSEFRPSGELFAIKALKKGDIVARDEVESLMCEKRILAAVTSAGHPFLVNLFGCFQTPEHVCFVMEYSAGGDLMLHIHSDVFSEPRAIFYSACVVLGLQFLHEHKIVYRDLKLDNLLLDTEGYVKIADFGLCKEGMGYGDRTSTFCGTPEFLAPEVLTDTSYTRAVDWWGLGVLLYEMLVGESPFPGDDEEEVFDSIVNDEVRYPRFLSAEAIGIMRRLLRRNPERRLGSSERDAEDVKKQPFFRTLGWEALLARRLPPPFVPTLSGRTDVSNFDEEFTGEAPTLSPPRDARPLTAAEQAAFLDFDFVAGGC
The target of assay [9] is T1, Rhodopsin kinase GRK7 (Homo sapiens) (UniProt Q8WTQ7).
T1 sequence (whole entry): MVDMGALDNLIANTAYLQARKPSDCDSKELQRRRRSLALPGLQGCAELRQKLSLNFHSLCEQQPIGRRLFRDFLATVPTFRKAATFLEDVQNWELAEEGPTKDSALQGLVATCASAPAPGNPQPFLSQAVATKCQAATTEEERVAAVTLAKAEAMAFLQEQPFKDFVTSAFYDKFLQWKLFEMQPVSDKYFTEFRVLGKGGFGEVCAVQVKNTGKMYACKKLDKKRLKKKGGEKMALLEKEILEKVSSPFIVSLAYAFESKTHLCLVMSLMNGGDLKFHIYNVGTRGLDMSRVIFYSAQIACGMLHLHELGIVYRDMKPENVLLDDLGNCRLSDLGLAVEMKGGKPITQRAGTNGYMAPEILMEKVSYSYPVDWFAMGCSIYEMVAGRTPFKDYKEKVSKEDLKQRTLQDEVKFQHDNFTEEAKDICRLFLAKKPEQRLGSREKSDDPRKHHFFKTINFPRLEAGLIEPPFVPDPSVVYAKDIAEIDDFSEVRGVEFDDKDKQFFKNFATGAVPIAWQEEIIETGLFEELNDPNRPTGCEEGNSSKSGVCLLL
Nature of the assay: Selectivity interaction (KinomeScan (DiscoverX)) EUB0000655a GRK7. The conditions noted are these: at 10 µM.

The target in assay [10] is Calcium/calmodulin-dependent protein kinase type II subunit delta (Homo sapiens) (UniProt Q13557). As to the kind of experiment: Selectivity interaction (KinomeScan (DiscoverX)) EUB0001079a CAMK2D. The conditions noted are these: at 1 µM.
Calcium/calmodulin-dependent protein kinase type II subunit delta (Homo sapiens), sequence (Q13557 whole entry): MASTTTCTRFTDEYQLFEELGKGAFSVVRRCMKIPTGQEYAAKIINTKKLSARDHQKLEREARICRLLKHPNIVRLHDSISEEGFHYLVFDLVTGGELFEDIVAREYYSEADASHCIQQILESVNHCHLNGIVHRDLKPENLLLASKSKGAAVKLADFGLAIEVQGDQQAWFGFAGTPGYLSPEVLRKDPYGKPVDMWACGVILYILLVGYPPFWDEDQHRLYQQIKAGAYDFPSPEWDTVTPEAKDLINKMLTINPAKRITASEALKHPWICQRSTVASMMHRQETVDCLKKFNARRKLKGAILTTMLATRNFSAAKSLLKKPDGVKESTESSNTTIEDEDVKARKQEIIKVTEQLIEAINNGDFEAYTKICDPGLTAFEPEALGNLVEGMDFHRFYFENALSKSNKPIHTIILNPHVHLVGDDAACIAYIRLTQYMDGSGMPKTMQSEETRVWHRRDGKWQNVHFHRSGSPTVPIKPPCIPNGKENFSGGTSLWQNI
The target of the next assay is Mu-type opioid receptor (Homo sapiens, UniProt P35372). As to the kind of experiment: Selectivity interaction (GPCR panel (PDSP screen)) EUB0001079a OPRM1. As to conditions: at 10 µM.
Assay [11] addresses T2, NUAK family SNF1-like kinase 1 (Homo sapiens) (UniProt O60285).
T2 sequence (whole entry): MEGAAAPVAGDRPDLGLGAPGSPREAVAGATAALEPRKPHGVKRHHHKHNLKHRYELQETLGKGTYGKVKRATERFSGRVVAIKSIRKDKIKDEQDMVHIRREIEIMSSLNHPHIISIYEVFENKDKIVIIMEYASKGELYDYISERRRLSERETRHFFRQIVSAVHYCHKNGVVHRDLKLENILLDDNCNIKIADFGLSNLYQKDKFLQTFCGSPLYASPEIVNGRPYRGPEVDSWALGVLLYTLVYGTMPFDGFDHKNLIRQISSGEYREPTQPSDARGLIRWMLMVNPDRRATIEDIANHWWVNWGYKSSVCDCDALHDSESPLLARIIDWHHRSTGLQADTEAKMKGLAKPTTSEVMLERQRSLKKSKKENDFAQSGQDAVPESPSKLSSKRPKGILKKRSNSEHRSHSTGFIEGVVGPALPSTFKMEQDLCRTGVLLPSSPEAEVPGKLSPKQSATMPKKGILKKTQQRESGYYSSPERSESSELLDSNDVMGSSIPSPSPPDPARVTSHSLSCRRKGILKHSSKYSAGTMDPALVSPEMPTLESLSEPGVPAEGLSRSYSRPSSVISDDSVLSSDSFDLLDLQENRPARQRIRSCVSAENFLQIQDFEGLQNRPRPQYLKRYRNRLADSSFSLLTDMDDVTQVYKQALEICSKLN
Nature of the assay: Selectivity interaction (Kinase panel (literature)) EUB0001199aCl NUAK1. The conditions noted are these: at 1 µM.

Assay [12] deals with T3, Dual specificity mitogen-activated protein kinase kinase 3 (Homo sapiens) (UniProt P46734).
T3 sequence (whole entry): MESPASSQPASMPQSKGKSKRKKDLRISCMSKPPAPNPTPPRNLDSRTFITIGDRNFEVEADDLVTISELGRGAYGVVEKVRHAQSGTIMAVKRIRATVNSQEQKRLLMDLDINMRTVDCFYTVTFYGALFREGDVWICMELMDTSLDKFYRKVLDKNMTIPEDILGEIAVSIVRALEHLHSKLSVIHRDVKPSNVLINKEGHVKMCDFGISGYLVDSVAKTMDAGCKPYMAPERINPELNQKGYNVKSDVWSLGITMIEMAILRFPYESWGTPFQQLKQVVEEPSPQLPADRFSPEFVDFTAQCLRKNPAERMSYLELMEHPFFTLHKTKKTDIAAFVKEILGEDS
As to the kind of experiment: Selectivity interaction (ActivX KiNativ screen (kinase selectivity in THP-1 cell lysates)) EUB0000639a MAP2K3. It is filed as subcellular. The conditions noted are these: lysate, at 0.04 µM.

A further assay addresses SRSF protein kinase 1 (Homo sapiens, UniProt Q96SB4). As to the kind of experiment: Selectivity interaction (ActivX KiNativ screen (kinase selectivity in THP-1 cell lysates)) EUB0000639a SRPK1. It is filed as subcellular. The conditions noted are these: lysate, at 1 µM.
Assay [13] addresses Ribosomal protein S6 kinase beta-1 (Homo sapiens, UniProt P23443). As to the kind of experiment: Selectivity interaction (ActivX KiNativ screen (kinase selectivity in THP-1 cell lysates)) EUB0000639a RPS6KB1. Type of assay: subcellular. The conditions noted are these: lysate, at 0.2 µM.
Assay [14] has as its target Death-associated protein kinase 1 (Homo sapiens, UniProt P53355). Nature of the assay: Selectivity interaction (KinomeScan (DiscoverX)) EUB0000092b DAPK1. The conditions noted are these: at 10 µM.
The target in assay [15] is Tyrosine-protein kinase JAK2 (Homo sapiens, UniProt O60674). As to the kind of experiment: Selectivity interaction (Upstate Kinase Profiler service (Millipore)) EUB0000056c JAK2. As to conditions: at 1 µM.
Tyrosine-protein kinase JAK2, sequence (O60674 whole entry): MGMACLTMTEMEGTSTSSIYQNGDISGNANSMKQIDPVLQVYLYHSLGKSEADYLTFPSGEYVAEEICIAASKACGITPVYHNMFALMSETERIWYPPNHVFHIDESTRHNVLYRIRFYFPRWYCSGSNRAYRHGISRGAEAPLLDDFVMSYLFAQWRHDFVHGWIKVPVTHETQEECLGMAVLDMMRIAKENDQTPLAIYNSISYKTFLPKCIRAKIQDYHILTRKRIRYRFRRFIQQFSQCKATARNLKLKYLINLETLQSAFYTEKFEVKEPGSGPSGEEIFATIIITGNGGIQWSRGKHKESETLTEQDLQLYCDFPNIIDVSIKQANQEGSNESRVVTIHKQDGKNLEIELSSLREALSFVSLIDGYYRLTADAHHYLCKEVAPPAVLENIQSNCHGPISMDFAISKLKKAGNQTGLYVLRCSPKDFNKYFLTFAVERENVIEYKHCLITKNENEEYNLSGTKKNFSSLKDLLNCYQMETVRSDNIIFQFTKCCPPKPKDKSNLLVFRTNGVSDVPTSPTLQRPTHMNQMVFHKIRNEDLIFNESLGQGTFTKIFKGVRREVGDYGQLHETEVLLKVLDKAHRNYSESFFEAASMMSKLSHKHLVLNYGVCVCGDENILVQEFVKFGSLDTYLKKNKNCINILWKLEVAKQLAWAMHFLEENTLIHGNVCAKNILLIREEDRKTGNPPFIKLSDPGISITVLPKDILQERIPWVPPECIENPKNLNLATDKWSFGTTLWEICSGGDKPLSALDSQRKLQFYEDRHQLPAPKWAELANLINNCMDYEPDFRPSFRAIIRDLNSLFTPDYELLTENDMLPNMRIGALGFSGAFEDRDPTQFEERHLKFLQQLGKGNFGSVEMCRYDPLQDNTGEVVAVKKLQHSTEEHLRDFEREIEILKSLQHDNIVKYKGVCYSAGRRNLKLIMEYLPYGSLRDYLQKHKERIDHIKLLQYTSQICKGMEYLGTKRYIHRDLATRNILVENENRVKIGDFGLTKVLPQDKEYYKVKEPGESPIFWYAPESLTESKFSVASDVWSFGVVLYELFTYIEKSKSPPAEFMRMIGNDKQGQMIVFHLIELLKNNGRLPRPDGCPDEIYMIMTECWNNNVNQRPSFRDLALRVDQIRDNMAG
Assay [16] has as its target Ribosomal protein S6 kinase alpha-6 (Homo sapiens, UniProt Q9UK32). Nature of the assay: Selectivity interaction (KinomeScan (DiscoverX)) EUB0000595a RPS6KA6. The conditions noted are these: at 10 µM.

Eleven molecules from ChEMBL document CHEMBL5465560, “Selectivity Literature for EUbOPEN Chemogenomic Library” (2024) can be followed below.

For `Cn1cc(-n2cnc3c(NCc4nc5cc(Cl)c(Cl)cc5[nH]4)nc(N4CCOCC4)nc32)cn1`, the % of control was 1.29% in assay [1]; 3.08% in assay [2]; 9.07% in assay [3]; 5.81% in assay [4]; 3.58% in [5].
For the molecule `CN(C)C/C=C/C(=O)Nc1ccc(C(=O)N2CCCC(Nc3ncc(Cl)c(-c4c[nH]c5ccccc45)n3)C2)cc1` (stereo not drawn), the % of control in assay [6] is 92%.
Molecule `CNC(=O)Nc1ccc(-c2nc(N3CC4CCC(C3)O4)c3cnn(C4CCC5(CC4)OCCO5)c3n2)cc1` gave a % of control in assay [7] of 96%.
The molecule `Cc1cc([C@@H](C)Nc2ccccc2C(=O)O)c2nc(N3CCOCC3)cc(=O)n2c1` [AZD-6482] showed a % of control in assay [8] of 100%.
For `CN(C)CCOc1ccc(-c2nc(-c3ccncc3)c(-c3ccc4c(c3)CC/C4=N\O)[nH]2)cc1`, the % of control in [9] was found to be 100%.
As for `Nc1cnc(N2CCc3cc(S(=O)(=O)Nc4c(F)cc(Cl)cc4F)cc(N4CCCC4=O)c32)nc1` [TP-020n], the % of control in assay [10] stood at 100%. In addition, at Mu-type opioid receptor, the % of inhibition is -1.31%.
In the case of `CN1Cc2nccc(-c3cn(C)nc3-c3ccc(F)cc3)c2C1=O`, the % of inhibition in assay [11] was -6%.
`CC[C@@H]1[C@H](F)C(=O)N[C@@H]1COc1nccc2cc(C(N)=O)c(OC)cc12` [ZIMLOVISERTIB]: the % of inhibition in assay [12] is -19%; on SRSF protein kinase 1, 0.5%; in assay [13] it was -6.2%.
On to `CCC(=O)N1CCN(c2ccc(-n3c(=O)ccc4cnc5ccc(-c6cnc7ccccc7c6)cc5c43)cc2C(F)(F)F)CC1`, for which, in [14], the % of control came to 96%.
As for `Cc1ccc(-c2ccc3c(ccc4sc5c(c43)NC[C@@H](C)NC5=O)n2)cn1`, in [15], the % of inhibition was found to be 14%.
For `COCC(=O)NC/C=C/c1ccc2ncnc(Nc3ccc(Oc4ccc(C)nc4)c(C)c3)c2c1` [CP-724714], the % of control in assay [16] came out at 96%.
